Experimental data: PMC12988607 (BMC Pharmacology & Toxicology, 2026)
Like-named read-outs stand apart in the source and are kept apart here.

Key:
[1] = type: in vivo, healthy Chinese volunteers; conditions: for AUC(0-t): AUC0-t; for AUC(0-t) / AUC(0-inf) / Cmax / Tmax: geometric mean; for AUC(0-inf): AUC0-∞; for half-life: t1/2, geometric mean
[2] = cited from earlier work
[3] = tested on: healthy Chinese volunteers; experiment: RAAS-related parameters; type: in vivo; conditions: for Ang II: after EMPA
[4] = tested on: healthy Chinese volunteers; experiment: Blood PD parameters; type: in vivo; conditions: p < 0.05; for blood-GLU / insulin: fasting group; for blood-GLU: before EMPA (5.1 ± 0.4) mmol/L; for insulin: before EMPA (7.0 ± 3.7) mU/L
[5] = tested on: healthy Chinese volunteers; experiment: Urine PD parameters; type: in vivo; conditions: for urine-GLU: 0~4 h after 10 mg EMPA, p < 0.001
[6] = within 3 hours; cited from earlier work
[7] = Fed (high-fat diet), single 10 mg EMPA
[8] = human, plasma, oral, 10 mg, Fasting, single 10 mg EMPA
[9] = human, plasma, oral, 10 mg, Fed (high-fat diet), single 10 mg EMPA

Q: With `OC[C@H]1O[C@@H](c2ccc(Cl)c(Cc3ccc(O[C@H]4CCOC4)cc3)c2)[C@H](O)[C@@H](O)[C@@H]1O` [EMPA, empagliflozin] as the molecule, how does the “Plasma concentrations Fasting/fed” value ([1]; 0.5 h after 10 mg EMPA) read?
A: 3.00

Q: And the “Plasma concentrations Fasting/fed” value ([1]; 1 h after 10 mg EMPA)?
A: 2.27

Q: And the “Plasma concentrations Fasting/fed” value ([1]; 1.25 h after 10 mg EMPA)?
A: 1.92

Q: And the “Plasma concentrations Fasting/fed” value ([1]; 1.5 h after 10 mg EMPA)?
A: 1.71

Q: What about the “Plasma concentrations Fasting/fed” value ([1]; 1.75 h after 10 mg EMPA) of the same molecule?
A: 1.68

Q: And the “Plasma concentrations Fasting/fed” value ([1]; 2 h after 10 mg EMPA)?
A: 1.61

Q: What about the “Plasma concentrations Fasting/fed” value ([1]; 2.25 h after 10 mg EMPA) of the same molecule?
A: 1.62

Q: And the “Plasma concentrations Fasting/fed” value ([1]; 2.75 h after 10 mg EMPA)?
A: 1.55

Q: What about the “Plasma concentrations Fasting/fed” value ([1]; 3 h after 10 mg EMPA) of the same molecule?
A: 1.55

Q: And the “Plasma concentrations Fasting/fed” value ([1]; 4 h after 10 mg EMPA)?
A: 1.40

Q: What about the “Plasma concentrations Fasting/fed” value ([1]; 6 h after 10 mg EMPA) of the same molecule?
A: 1.36

Q: And the “Plasma concentrations Fasting/fed” value ([1]; 8 h after 10 mg EMPA)?
A: 1.30

Q: What about the “Plasma concentrations Fasting/fed” value ([1]; 10 h after 10 mg EMPA) of the same molecule?
A: 1.24

Q: And the “Plasma concentrations Fasting/fed” value ([1]; 12 h after 10 mg EMPA)?
A: 1.21

Q: What about the “Plasma concentrations Fasting/fed” value ([1]; 24 h after 10 mg EMPA) of the same molecule?
A: 1.09

Q: What about the “Plasma concentrations Fasting/fed” value ([1]; 36 h after 10 mg EMPA) of the same molecule?
A: 1.09

Q: And the “Plasma concentrations Fasting/fed” value ([1]; 48 h after 10 mg EMPA)?
A: 1.03

Q: And the “AUC_%Extrap, geometric mean” value ([1]; Fasting, single 10 mg EMPA)?
A: 1.80%

Q: What about the “AUC_%Extrap, geometric mean” value [1, 7] of the same molecule?
A: 2.57%

Q: What about the “λz, geometric mean” value [1, 7] of the same molecule?
A: 0.08 h⁻¹

Q: What about the k el ([1]; human, plasma, oral, 10 mg) of the same molecule?
A: 2.22e-05 s⁻¹

Q: And the AUC(0-t) [1, 8]?
A: 1310 ng·h/mL

Q: What about the AUC(0-t) [1, 9] of the same molecule?
A: 951 ng·h/mL

Q: What about the AUC(0-inf) [1, 8] of the same molecule?
A: 1330 ng·h/mL

Q: And the AUC(0-inf) [1, 9]?
A: 978 ng·h/mL

Q: What about the Cmax [1, 8] of the same molecule?
A: 187 ng/mL

Q: And the Cmax [1, 9]?
A: 113 ng/mL

Q: And the concentration at 1 h ([1]; human, plasma, oral, 10 mg, Plasma concentrations, Fasting (n = 56), 1 h after 10 mg EMPA)?
A: 166 ± 60.6 ng/mL

Q: And the concentration at 2 h ([1]; human, plasma, oral, 10 mg, Plasma concentrations, Fasting (n = 56), 2 h after 10 mg EMPA)?
A: 152 ± 27.3 ng/mL

Q: What about the concentration at 3 h ([1]; human, plasma, oral, 10 mg, Plasma concentrations, Fasting (n = 56), 3 h after 10 mg EMPA) of the same molecule?
A: 123 ± 17.9 ng/mL

Q: And the concentration at 4 h ([1]; human, plasma, oral, 10 mg, Plasma concentrations, Fasting (n = 56), 4 h after 10 mg EMPA)?
A: 104 ± 16.4 ng/mL

Q: And the concentration at 6 h ([1]; human, plasma, oral, 10 mg, Plasma concentrations, Fasting (n = 56), 6 h after 10 mg EMPA)?
A: 72 ± 12.5 ng/mL

Q: And the concentration at 8 h ([1]; human, plasma, oral, 10 mg, Plasma concentrations, Fasting (n = 56), 8 h after 10 mg EMPA)?
A: 52.6 ± 9.1 ng/mL

Q: What about the concentration at 10 h ([1]; human, plasma, oral, 10 mg, Plasma concentrations, Fasting (n = 56), 10 h after 10 mg EMPA) of the same molecule?
A: 40.4 ± 8.2 ng/mL

Q: What about the concentration at 12 h ([1]; human, plasma, oral, 10 mg, Plasma concentrations, Fasting (n = 56), 12 h after 10 mg EMPA) of the same molecule?
A: 30.7 ± 6.5 ng/mL

Q: And the concentration at 24 h ([1]; human, plasma, oral, 10 mg, Plasma concentrations, Fasting (n = 56), 24 h after 10 mg EMPA)?
A: 10.1 ± 3 ng/mL

Q: And the concentration at 36 h ([1]; human, plasma, oral, 10 mg, Plasma concentrations, Fasting (n = 56), 36 h after 10 mg EMPA)?
A: 3.5 ± 1.4 ng/mL

Q: What about the concentration at 48 h ([1]; human, plasma, oral, 10 mg, Plasma concentrations, Fasting (n = 56), 48 h after 10 mg EMPA) of the same molecule?
A: 2.2 ± 0.9 ng/mL

Q: And the concentration at 0.5 h ([1]; human, plasma, oral, 10 mg, Plasma concentrations, Fed (n = 58), high-fat diet, 0.5 h after 10 mg EMPA)?
A: 34.2 ± 31 ng/mL

Q: What about the concentration at 1 h ([1]; human, plasma, oral, 10 mg, Plasma concentrations, Fed (n = 58), high-fat diet, 1 h after 10 mg EMPA) of the same molecule?
A: 72.9 ± 49.5 ng/mL

Q: What about the concentration at 1.25 h ([1]; human, plasma, oral, 10 mg, Plasma concentrations, Fed (n = 58), high-fat diet, 1.25 h after 10 mg EMPA) of the same molecule?
A: 87.4 ± 39.2 ng/mL

Q: What about the concentration at 1.5 h ([1]; human, plasma, oral, 10 mg, Plasma concentrations, Fed (n = 58), high-fat diet, 1.5 h after 10 mg EMPA) of the same molecule?
A: 95.7 ± 33.7 ng/mL

Q: What about the concentration at 1.75 h ([1]; human, plasma, oral, 10 mg, Plasma concentrations, Fed (n = 58), high-fat diet, 1.75 h after 10 mg EMPA) of the same molecule?
A: 94.1 ± 28.1 ng/mL

Q: And the concentration at 2 h ([1]; human, plasma, oral, 10 mg, Plasma concentrations, Fed (n = 58), high-fat diet, 2 h after 10 mg EMPA)?
A: 94.2 ± 26.3 ng/mL

Q: What about the concentration at 2.25 h ([1]; human, plasma, oral, 10 mg, Plasma concentrations, Fed (n = 58), high-fat diet, 2.25 h after 10 mg EMPA) of the same molecule?
A: 91.5 ± 22.6 ng/mL

Q: And the concentration at 2.75 h ([1]; human, plasma, oral, 10 mg, Plasma concentrations, Fed (n = 58), high-fat diet, 2.75 h after 10 mg EMPA)?
A: 83.9 ± 16 ng/mL

Q: What about the concentration at 3 h ([1]; human, plasma, oral, 10 mg, Plasma concentrations, Fed (n = 58), high-fat diet, 3 h after 10 mg EMPA) of the same molecule?
A: 79.4 ± 15 ng/mL

Q: And the concentration at 4 h ([1]; human, plasma, oral, 10 mg, Plasma concentrations, Fed (n = 58), high-fat diet, 4 h after 10 mg EMPA)?
A: 74.4 ± 11.1 ng/mL

Q: And the concentration at 6 h ([1]; human, plasma, oral, 10 mg, Plasma concentrations, Fed (n = 58), high-fat diet, 6 h after 10 mg EMPA)?
A: 53.1 ± 8.8 ng/mL

Q: What about the concentration at 8 h ([1]; human, plasma, oral, 10 mg, Plasma concentrations, Fed (n = 58), high-fat diet, 8 h after 10 mg EMPA) of the same molecule?
A: 40.5 ± 7.6 ng/mL

Q: What about the concentration at 10 h ([1]; human, plasma, oral, 10 mg, Plasma concentrations, Fed (n = 58), high-fat diet, 10 h after 10 mg EMPA) of the same molecule?
A: 32.7 ± 6.7 ng/mL

Q: And the concentration at 12 h ([1]; human, plasma, oral, 10 mg, Plasma concentrations, Fed (n = 58), high-fat diet, 12 h after 10 mg EMPA)?
A: 25.4 ± 4.9 ng/mL

Q: What about the concentration at 24 h ([1]; human, plasma, oral, 10 mg, Plasma concentrations, Fed (n = 58), high-fat diet, 24 h after 10 mg EMPA) of the same molecule?
A: 9.3 ± 1.8 ng/mL

Q: And the concentration at 36 h ([1]; human, plasma, oral, 10 mg, Plasma concentrations, Fed (n = 58), high-fat diet, 36 h after 10 mg EMPA)?
A: 3.2 ± 1.2 ng/mL

Q: What about the concentration at 48 h ([1]; human, plasma, oral, 10 mg, Plasma concentrations, Fed (n = 58), high-fat diet, 48 h after 10 mg EMPA) of the same molecule?
A: 2.2 ± 0.8 ng/mL

Q: What about the Tmax [1, 8] of the same molecule?
A: 1.31 h

Q: What about the Tmax [1, 9] of the same molecule?
A: 1.67 h

Q: And the half-life [1, 8]?
A: 8.18 h

Q: What about the half-life [1, 9] of the same molecule?
A: 8.34 h

Q: What about the “effect of a high-fat diet (HFD) on Cmax and AUC” value ([2]; 25 mg and 50 mg EMPA) of the same molecule?
A: reduce

Q: What about the bioavailability [2] of the same molecule?
A: poor

Q: And the “time to reach Cmax” value [2]?
A: 1.33 to 3.0 h

Q: And the “ALD levels, after vs before EMPA” value ([3]; fasting group)?
A: no significant differences

Q: What about the PRC ([3]; fasting group, 2 h after EMPA, before EMPA (37.3 ± 25.8) pg/mL, p < 0.05) of the same molecule?
A: 52.2 ± 28.2 pg/mL

Q: What about the PRC ([3]; fasting group, 4 h after EMPA, before EMPA (37.3 ± 25.8) pg/mL, p < 0.05) of the same molecule?
A: 51.5 ± 23.7 pg/mL

Q: And the “Ang II” value ([3]; fasting group, before EMPA (81.9 ± 9.9) pg/mL, p < 0.05)?
A: 88.2 ± 10.3 pg/mL

Q: And the “ALD levels, after vs before EMPA” value ([3]; fed group)?
A: no significant differences

Q: And the PRC ([3]; fed group, 4 h after EMPA, before EMPA (32.5 ± 22.4) pg/mL, p = ns)?
A: 30.4 ± 18.9 pg/mL

Q: And the “Ang II” value ([3]; fed group, before EMPA (91.6 ± 26.7) pg/mL, p < 0.05)?
A: 82.6 ± 23.3 pg/mL

Q: What about the blood-GLU ([4]; 2 h after EMPA) of the same molecule?
A: 4.8 ± 0.3 mmol/L

Q: What about the insulin ([4]; 2 h after EMPA) of the same molecule?
A: 5.0 ± 2.2 mU/L

Q: And the blood-GLU ([4]; 4 h after EMPA)?
A: 4.7 ± 0.3 mmol/L

Q: What about the insulin ([4]; 4 h after EMPA) of the same molecule?
A: 4.7 ± 3.2 mU/L

Q: And the BUN ([4]; fed group, 4 h after EMPA, before EMPA (4.4 ± 1.0) mmol/L)?
A: 5.5 ± 1.0 mmol/L

Q: And the SCr ([4]; fed group, 4 h after EMPA, before EMPA (66.0 ± 8.4) mmol/L as printed)?
A: 71.5 ± 9.7 µmol/L

Q: And the eGFR ([4]; fed group, 4 h after EMPA, before EMPA (141.6 ± 22.0))?
A: 128.3 ± 20.7 ml/min/1.73 m^2

Q: And the blood-UA ([4]; fed group, 4 h after EMPA, comparison value (369.2 ± 62.9) μmol/L)?
A: 342.6 ± 57.6 µmol/L

Q: And the urine-GLU ([5]; fasting group (n = 19), before EMPA (0.3 ± 0.2) mmol/L)?
A: 70.9 ± 29.9 mmol/L

Q: What about the β2-MG ([5]; fasting group, urine after EMPA, before EMPA (0.148 ± 0.054) mg/L, p < 0.05) of the same molecule?
A: 0.080 ± 0.065 mg/L

Q: What about the α1-MG ([5]; fasting group, urine after EMPA, before EMPA (2.9 ± 1.7) mg/L, p < 0.05) of the same molecule?
A: 1.9 ± 1.8 mg/L

Q: What about the “α1-MG level, after vs before EMPA” value ([5]; fed group (EMPA post-meal), urine) of the same molecule?
A: did not show a significant difference

Q: And the urine-GLU ([5]; fed group (n = 23), before EMPA (0.3 ± 0.3) mmol/L)?
A: 89.6 ± 35.4 mmol/L

Q: And the urine-UA ([5]; fed group, after 4 h of EMPA administration, comparison value (2223.8 ± 891.1) mmol/L, p < 0.05)?
A: 2751.5 ± 1018.1 mmol/L

Q: And the β2-MG ([5]; fed group, urine after EMPA, before EMPA (0.145 ± 0.075) mg/L, p < 0.05)?
A: 0.094 ± 0.059 mg/L

Q: And the “increase in urinary glucose excretion” value [6]?
A: 27 times
